One test deals with ONS-76 cells. Description: Spheroid invasion, 3D culture. In kind it is cell-based, human. Particulars: ONS-76, 1 µM, from day 7. The procedure: (§1) Figure 4 C29 reduces proliferation, migration, and invasion of naïve MB cells. (A) Proliferation of Daoy, ONS-76, HD-MB03, and D341Med wild-type cells after treatment with 1 μM C29 or the control (DMSO), n = 3. (B) Clonogenic assay on Daoy (n = 4), ONS-76 (n = 3) and HD -MB03 (n = 5) cells after treatment with control (DMSO) or C29 (1 μM or 2.5 μM). Scale = 500 μm. (C) Cell migration through the Boyden chamber of Daoy and ONS-76 cells specifically attracted by 200 ng/mL CXCL8. Results are expressed as percentage of control (DMSO) (n = 3). Scale = 1000 μm. (D) Spheroid invasion using 3D culture cell assays on Daoy (n = 4) and ONS-76 cells (n = 3) treated with control (DMSO) or C29 at a concentration of 1 μM on day 0, 1, and 2. Results are expressed as percentage of day 0, n = 4. Scale = 500 μm. Statistics were performed using Student t-test for 2 comparisons only or ANOVA test for multiple comparisons. * p < 0.05, ** p < 0.01, *** p < 0.001. […]
(§2) each month by using PlasmoTest Kit (#10L07‐MM, InvivoGen, Toulouse, France). Daoy and ONS‐76 belong to the Shh genetic subgroup, D341‐Med and HD‐MB03 to group 3. […]
(§3) (1, 2∙5, 5μM) for 48 hours. […]
(§4) 5000 cells were plated in 48 multi‐well plates coated with agarose 0∙8%. […] Images were recorded each day with the Evos XL Core Cell Imaging system (Thermo Fisher).

A further test concerns Daoy cells. Nature of the test: Spheroid invasion, 3D culture. In kind it is cell-based, human. Particulars: 1 µM, from day 2. The procedure:
as §1, §2, §3, §4

Test [1] deals with Daoy, ONS-76, HD-MB03, and D341Med wild-type cells. Nature of the test: Cell proliferation assay (cell counting). In kind it is cell-based, human. Particulars: 1 µM C29, pre-incubation prior to cell seeding, all tested cell lines. Here is the method: To confirm the efficacy of C29 on various parameters of cancer cell aggressiveness, we first performed cell proliferation assays at longer time points.
Figure 4 C29 reduces proliferation, migration, and invasion of naïve MB cells. (A) Proliferation of Daoy, ONS-76, HD-MB03, and D341Med wild-type cells after treatment with 1 μM C29 or the control (DMSO), n = 3. (B) Clonogenic assay on Daoy (n = 4), ONS-76 (n = 3) and HD -MB03 (n = 5) cells after treatment with control (DMSO) or C29 (1 μM or 2.5 μM). Scale = 500 μm. (C) Cell migration through the Boyden chamber of Daoy and ONS-76 cells specifically attracted by 200 ng/mL CXCL8. Results are expressed as percentage of control (DMSO) (n = 3). […] Results are expressed as percentage of day 0, n = 4. […]
1500 Daoy, ONS ‐76, HD ‐MB03 or D341 Med cells were sown in triplicate in plates with six wells and the cells were counted daily for 8 days using a Coulter counter (Ville‐ pinte). The relative number of cells (compared to day 1) was determined daily. […]
Y = Y0 * exp(k * X) (Y= Cell number at day X; Y0= Cell number at day 0 (graphically calculated); X= Day following cell plating (cells plated at X0=0); k= Exponential growth constant rate. Doubling times were compared. […]
were seeded in 6‐well plates. […] Cell death was detected by PE chan‐ nel using FACS Cytoflex (Beckman) immediately after labelling the cells with 1ug/ml pro‐ pidium iodide (Miltenyi Biotec). […]

Test [2] deals with uveal melanoma cells (Mel202). More on the design: method as in PMID 24676409. Particulars: Mel202, low expression of CXCR1/2; cited from earlier work.

Molecules are shown by their SMILES.

For the compound `O=C(Nc1cccc(Cl)c1)Nc1nc2ccc([N+](=O)[O-])cc2s1` [C29, 1-(3-chlorophenyl)-3-(6-nitrobenzo[d]thiazol-2-yl) urea], the Spheroid invasion ability result in the test on ONS-76 cells and with Daoy cells was “affected the invasion ability” in each case. Also, the Proliferation entry in test [1] is given as “completely inhibited proliferation”. The “Effect on proliferation and survival” value in test [2] was “no effect”.

Values taken from PMC9738107, “Targeting of the ELR+CXCL/CXCR1/2 Pathway Is a Relevant Strategy for the Treatment of Paediatric Medulloblastomas” (Cells, 2022).
